From patent US12226382B2, “Methods for treating microglial dysfunction” (Washington University, priority 2017, dated 2025)

How the values were obtained:
[1] = system: Trem2−/− BMDMs; test: ER stress in BMDM (LC3 and phospho-Akt immunoblots); format: cell-based, mouse; settings: Trem2−/− BMDMs compared with WT BMDMs, 10% LCCM
Protocol: (§1) To prepare bone marrow-derived macrophages, femurs and tibias were removed and flushed with PBS. Cells were counted and plated at 2.5×10^6 cells/100 mm petri dish in RPMI supplemented with Glutamax, penicillin/streptomycin, non-essential amino acids, pyruvate, and 10% heat inactivated fetal bovine serum (complete RPMI) and 10% L-cell conditioned medium (LCCM). Cells were cultured for 4-5 days before use. Microglia were prepared as previously described (Wang et al., 2015). Briefly, brains were dissociated by using a Neural Tissue Dissociation Kit (T) (Miltenyi Biotech Cat. Number 130-093-231). Cell suspensions were labeled with anti-mouse CD45 magnetic beads and isolated on LS columns (Miltenyi Biotic). Cells were plated onto poly-L-lysine coated polystyrene plates in complete RPMI supplemented with 20% LCCM and 10 ng/ml human TGF-β. Media was changed on day 3 post plating and cells were used 5-7 days post plating. ATP concentrations were determined with an ATP Determination Kit (Invitrogen).
(§2) BMDM or microglia were lysed in RIPA buffer (50 mM Tris, 150 mM NaCl, 1% SDS, and 1% Triton X100) containing PMSF, leupeptin, activated sodium orthovanidate, apoprotinin, and phosphatase inhibitor cocktail 3 (Sigma Aldrich Cat. Number P0044). Lysates were flash frozen on dry ice and stored at −80° C. until use. Lysates were thawed and 4× LDS running buffer and 10% β-mercaptoethanol were added. […]

[2] = system: microglia from Trem2−/− 5XFAD mice; test: Immunoblots of microglia sorted ex vivo from cyclocreatine-treated mice; format: in vivo, mouse; settings: microglia isolated ex vivo, cyclocreatine vs untreated
Source text: (§3) The generation of Trem2^−/− and Trem2^−/− SXFAD mice has been described previously (Oakley et al., 2006; Turnbull et al., 2006; Wang et al., 2015). All mice were on a C57BL/6 background. Age and sex matched mice were used for all experiments; experimental cohorts of mice were cohoused from birth to control for the microbiota. For in vivo cyclocreatine treatment 10-week old mice were put on cyclocreatine-containing water, treatment was continued until mice reached 8 months of age (Santa Cruz SC-217964 S). Desired intake of cyclocreatine was approximately 0.28 mg/g of body weight/day, which is approximately the same as the standard creatine dose used in humans of 285 mg/kg of body weight/day (Kurosawa et al., 2012). Cyclocreatine was administered in drinking water at a final concentration of 2.33 mg/ml. The Institutional Animal Care and Use Committee at Washington University in St. Louis approved all protocols used in this study.
Microglia were isolated from the indicated animals as previously described (Wang et al., 2015). CD45^+, CD11 b^+, F4/80^+ (Biolegend Cat. Number 103134, eBioscience Cat. Numbers 11-0112 and 17-4801) cells in the brain were fluorescence-activated cell-sorted (FACS) directly into RLT-plus lysis buffer for microarray or 2% FBS in PBS for TEM or immunoblot lysates. For microarray RNA extraction was performed using a RNeasy micro kit (QIAGEN). […]

[3] = system: Trem2-deficient BMDMs; test: Extracellular acidification rate (ECAR), XF96 Extracellular Flux Analyzer; format: cell-based, mouse; settings: overnight 0.5% LCCM, 10 mM cyclocreatine
Protocol: as §1, with “(Invitrogen). For real-time analysis of extracellular acidification rates (ECAR) macrophages were analyzed using an XF96 Extracellular Flux Analyzer (Agilent Technologies). Cells were incubated overnight in complete RPMI in the indicated concentration of LCCM with or without cyclocreatine (10 mM). […]” for “(Invitrogen).”

[4] = system: Trem2−/− BMDM; test: Viability of BMDM in 0.5% LCCM; format: cell-based, mouse; settings: Trem2-deficient BMDMs, 40 hours in 0.5% LCCM
[5] = system: creatine kinase; settings: in vitro and in vivo; cited from earlier work
[6] = system: 5XFAD mice; test: Dietary cyclocreatine in 5XFAD mice: confocal microscopy of brain; format: in vivo, mouse; settings: cyclocreatine-treated 5XFAD mice vs untreated Trem2−/− 5XFAD mice
Source text: as §3
Confocal microscopy analysis was performed as previously described (Wang et al., 2015). Briefly, mice were anesthetized with ketamine/xylazine and perfused with ice-cold PBS containing 1 U/ml of heparin. Brains were fixed in 4% PFA overnight at 4° C. rinsed in PBS and incubated overnight at 4° C. in 30% sucrose before freezing in a 2:1 mixture of 30% sucrose and optimal cutting temperature compound. […]

[7] = cited from earlier work
[8] = system: Trem2−/− BMDMs; test: Immunoblots for autophagy (LC3, p62) and mTOR signaling in BMDM in limiting CSF1 with rescuing agent; format: cell-based, mouse; settings: Trem2-deficient BMDMs, overnight 0.5% LCCM, 5 mM cyclocreatine
Protocol: as §1, §2

[9] = system: Trem2−/− 5XFAD mice; test: Dietary cyclocreatine in Trem2−/− 5XFAD mice: TEM and confocal microscopy of brain; format: in vivo, mouse
Source text: as §3
For quantitation of multivesicular/multilamellar structures, 30 cells that were cross-sectioned through the nucleus (indicating cross-section through the middle of cell) were randomly chosen, and images of each cell were taken at 6,000× and 20,000× magnification. The cross-sectional area of each of the multivesicular structures were determined using Image J 1.38 g (National Institutes of Health, USA, customized for AMT images). Data is expressed as the 1) total number of a multivesicular/multilammelar structures per cross-sectional area of cytosol and 2) the total cross-sectional area of multivesicular/multilamellar structures per area of cytosol.
Confocal microscopy analysis was performed as previously described (Wang et al., 2015). Briefly, mice were anesthetized with ketamine/xylazine and perfused with ice-cold PBS containing 1 U/ml of heparin. Brains were fixed in 4% PFA overnight at 4° C. rinsed in PBS and incubated overnight at 4° C. in 30% sucrose before freezing in a 2:1 mixture of 30% sucrose and optimal cutting temperature compound. Serial 40 μm coronal sections were cut on a cryo-sliding microtome. Floating sections from 1.1 mm Bregma to 0.8 mm Bregma for cortical imaging or slides with fixed human sections were stained with lba-1 (Waco Chemicals Cat. Number 019-19741) overnight at 4° C. followed by staining with anti-rabbit IgG DyLight 549 (Vector Laboratories Cat. Number DI-1549) and methoxy-X04 (Tocris Cat. Number 4920) for 1 hour at RT. Finally, sections were stained for with anti-LC3 Alexa 488±anti-cleaved caspase 3 (Cell Signaling Technologies Cat. Number 13082 and 9602). Images were collected using a Nikon Al Rsi+ confocal microscope. Images were then processed with Imaris 7.7 (Bitplane).
Positions of microglia and positions and volumes of plaques within z-stacks were derived from analysis in Imaris, and microglia-plaque association was determined using automated scripts in Matlab. Briefly, each plaque in the z-stack was modeled as an idealized sphere with the same volume and center of mass. Microglia density within 15 μm of the plaque surface was determined by isolating the voxels of the image that fall within 15 μm of the edge of the idealized plaque. The number of microglia contained in these voxels was divided by the total volume of those voxels to obtain density for a single plaque. Densities of all plaques in a z-stack were averaged together, and the resulting values were averaged together for all z-stacks corresponding to a single animal.
To measure total plaque area, brain sections were stained with methoxy X04. Images were collected using a Nikon Eclipse 80i microscope. For quantitative analysis, images were converted to 8-bit greyscale and stitched using the “Stitching” plugin in ImageJ. Cortex (˜1.1 mm Bregma to 0.8 mm Bregma) and hippocampus (˜−1.7 Bregma to −2.4 Bregma) were determined by manual selection. […]

[10] = system: Trem-2 deficient macrophages; test: Supplementation of Trem2-deficient macrophages with creatine analogs; format: cell-based, mouse; settings: supplemented media
[11] = compared with phosphocreatine; cited from earlier work
[12] = system: Trem2−/− BMDMs; test: Autophagic flux in BMDM with lysosomal inhibitor (LC3 immunoblot); format: cell-based, mouse; settings: bafilomycin for 5 hours prior to harvest
Protocol: as §1, §2

[13] = Trem2−/− 5XFAD mice, cyclocreatine in drinking water from 10 weeks to 8 months
[14] = Trem2−/− 5XFAD mice, cyclocreatine vs untreated
[15] = cyclocreatine treated Trem2−/− 5XFAD mice

## tunicamycin
[1]
  Akt S473 phosphorylation: less
  LC3II/LC3I ratios: greater

## NC1=NCCN1CC(=O)O [cyclocreatine, 1-carboxymethyl-2-iminoimidazolidine]
[2]
  autophagy (LC3II/LC3I ratio): significantly limited
  microglial mTOR signaling: restored
[3]
  ECAR: improved
[4]
  viability: increased
[5]
  phosphorylation by creatine kinase in the forward reaction: phosphorylated efficiently
[6]
  Spp1+ microglia: significantly more
[7]; mouse brain in vivo
  accumulation in the brain: can accumulate and function as a phosphagen in the mouse brain
[7]; mouse, in vivo
  transport across membranes: passively transported across membranes
[8]
  autophagy (LC3 immunoblot): less autophagy
  mTOR signaling: increased mTOR signaling
[9]; 8 months of age
  engulfment of plaque particulates by microglia: did not moderate
[9]; [13]
  number of LC3 puncta/cell: significantly decreased
  percentage of LC3+ microglia: significantly decreased
  percentage of cleaved caspase-3+ microglia: significantly decreased
[9]; Trem2−/− 5XFAD mice, cyclocreatine in drinking water from 10 weeks to 8 months, vs untreated
  multivesicular/multilamellar structures in microglia (TEM): significantly fewer
[9]; [14]
  clustering of microglia around plaques: significantly increased
  number of microglia/high powered field (HPF) in plaque-bearing regions of the cortex: significantly increased
  plaque-associated neurite dystrophy: significantly reduced
[9]; cortex and hippocampus, 8 months of age
  plaque accumulation: did not moderate
[9]; [15]
  density of plaques (methoxy-X04 staining intensity): resembled that of plaques in 5XFAD mice
  plaque shape complexity: not significantly altered
[9]; cyclocreatine-treated Trem2−/− 5XFAD mice vs untreated Trem2−/− 5XFAD mice
  Spp1+ microglia: significantly more
[10]
  autophagy: prevent
  cell death: prevent
  metabolic activity / metabolic capacity: rescue

## NC(=O)c1ccc[n+]([C@@H]2O[C@H](COP(=O)([O-])O)[C@@H](O)[C@H]2O)c1 [NMN, nicotinamide mononucleotide]
[10]
  autophagy: prevent
  cell death: prevent
  metabolic activity / metabolic capacity: rescue

## phosphocyclocreatine [cyclocreatine phosphate]
[11]
  stability of the phosphorous-nitrogen (P N) bond: more stable than that of phosphocreatine

## CO/C1=C\C(C)=C\[C@@H](C)[C@@H](O)[C@@H](C)C/C(C)=C/C=C/[C@H](OC)[C@@H]([C@@H](C)[C@@H](O)[C@H](C)[C@@]2(O)C[C@@H](O)[C@H](C)[C@@H](C(C)C)O2)OC1=O [bafilomycin, Bafilomycin A1]
[12]
  LC3II: greatly increased

## phosphocreatine
[10]
  autophagy: prevent
  cell death: prevent
  metabolic activity / metabolic capacity: rescue
